From patent publication US5594012A, “Amino acid derivatives and anti-active oxygen agents” (Ajinomoto Co., Inc., priority 1992, dated 1997)
Counter-ions that a name gives are not always drawn.

Experiments:
[1] = tested on: lipid peroxidation in murine brain homogenate; assay: Inhibitory effects on metal ion-induced lipid peroxidation (murine brain homogenate); type: biochemical, murine (C57 black mouse); conditions: 1 mM test compound; 100 μM ammonium iron (II) sulphate; 37° C., 30 minutes; pH 7.2 to 7.8
Protocol: Test for Inhibitory Effects on Metal Ion-induced Lipid Peroxidation
(§1) The test was carried out according to the method described in Method in Enzymol., Vol. 52, page 302, 1978. A C57 black mouse was killed by cervical dislocation, and the whole brain extracted from the dissected head was washed with 20 mM phosphate buffer (hereinafter referred to as "PBS-2"). Then, the brain was added with PBS-2 in an amount of 19 times its wet weight, and the mixture was disrupted and homogenized with a homogenizer "Polytron" (manufactured by Kinematica). The thus prepared 5% solution of the murine brain homogenate in PBS-2 was diluted 1:5 with fresh PBS-2. To 800 μl of the resulting 1% solution of the murine brain homogenate in PBS-2 (protein content: 0.8 to 1.0 mg/ml) were successively added 100 μl of a PBS-2 solution of each of the test compounds shown in Table 7 below and 100 μl of an aqueous solution of ammonium iron (II) sulphate. The final concentration of the test compounds and ammonium iron (II) sulphate were adjusted to be 1 mM and 100 μM, respectively. If test compounds were not soluble in PBS-2 alone, an aqueous sodium hydroxide solution or DMSO was added. The pH of the solution was adjusted to 7.2 to 7.8.
The solution after heated at 37° C. for 30 minutes was added with 2.0 ml of an aqueous solution of thiobarbituric acid/trichloroacetic acid/hydrochloric acid, and the mixture was heated in a boiling water bath for 15 minutes. After ice-cooling, the solution was extracted with 1.0 ml of 1-butanol to prepare a sample for determining the peroxide lipid in the same way as described in Test Example 1.
(§2) [formula] A1 : Absorbance when a test compound was added. A2 : Absorbance when a test compound was not added.
A3 : Absorbance when a test compound was not added and heating at 37° C. for 30 minutes was not carried out.

hydroxyl radical [2] = assay: Inhibitory effects on hydroxyl radical formation (2) (iron (II)/hydrogen peroxide, DMPO, ESR); type: biochemical; conditions: 306 μM test compound; 306 μM iron (II) sulphate; 75 mM DMPO; 306 μM hydrogen peroxide; ESR within 40 seconds
Protocol: Test for Inhibitory Effects on Hydroxyl Radical Formation (2)
To 75 μl of a solution of each of the test compounds shown in Table 9 below in 0.1M phosphate buffer (hereinafter referred to as "PBS-3") were successively added 75 μl of an aqueous solution of iron (II) sulphate, 20 μl of an aqueous solution of 5,5-dimethyl-1-pyrroline-N-oxide "DMPO" (manufactured by Dojin Chemical) and 75 μl of an aqueous solution of hydrogen peroxide. […] If test compounds were not soluble in PBS-3 alone, an aqueous sodium hydroxide solution or N,N-dimethyl formamide was added.
This solution was subjected to determination for the hydroxy radical immediately (within 40 seconds), using an electron spin resonance (ESR) meter "JES-FR80S" (manufactured by Nippon Denshi).
[formula] E1 : Signal magnitude when a test compound was added. E2 : Signal magnitude when a test compound was not added.

hydroxyl radical [3] = assay: Inhibitory effects on hydroxyl radical formation (1) (xanthine/xanthine oxidase, deoxyribose); type: biochemical; conditions: 360 μM test compound; 36 μM ammonium iron (III) sulphate; xanthine oxidase 0.7 unit/ml; 37° C., 15 minutes; pH 7.4 to 7.8
Protocol: Test for Inhibitory Effects on Hydroxyl Radical Formation (1)
The test was carried out in accordance with the method described in FEBS Letters, Vol. 128, page 347, 1981. Namely, to 1.1 ml of a solution of 54 mM sodium chloride in 9 mM phosphate buffer (hereinafter referred to as "PBS-I") were successively added 140 μl of a solution of each of the test compounds shown in Table 6 below in PBS-1, […] of a 1 mM solution of ammonium iron (III) sulphate in hydrochloric acid, 140 μl of a solution of xanthine (manufactured by Tokyo Kasei Co.) in PBS-1, 14 μl a solution of deoxyribose (Sigma) in PBS-1 and xanthine oxidase (Sigma). The final concentrations of the test compounds, ammonium iron (III) sulphate, xanthine, deoxyribose and xanthine oxidase were adjusted to be 360 μM, 36 μM, 70 μM, 700 μM and 0.7 unit/ml, respectively. If test compounds were not soluble in PBS-1 alone, aqueous sodium hydroxide solution or DMSO was added. The pH of the solution was adjusted to 7.4 to 7.8.
. The percent inhibition of the hydroxyl radical was calculated from the following equation (2) and the results are shown in Table 6. [formula] F1 : Intensity of fluorescence when a test compound was added. F2 : Intensity of fluorescence when a test compound was added but deoxyribose was not added.
F3 : Intensity of fluorescence when a test compound was not added.
F4 : Intensity of fluorescence when neither test compound nor deoxyribose was added.

[4] = tested on: lipid peroxidation in murine brain homogenate; assay: Inhibitory effects on lipid peroxidation (murine brain homogenate); type: biochemical, murine (C57 black mouse); conditions: 30 μM test compound; no added iron; 37° C., 60 minutes; pH 7.2 to 7.8
Protocol: as §1
Test for Inhibitory Effects on Lipid Peroxidation
To 900 μl of a 5% solution of the murine brain homogenate in PBS-2 prepared in the same way as described in Test Example 3 was added 100 μl of a PBS-2 solution of each of the test compounds shown in Table 8 below. The final concentration of the test compounds was adjusted to be 30 μM. If test compounds were not soluble in PBS-2 alone, an aqueous solution of sodium hydroxide or DMSO was added. The pH of the solution was adjusted to 7.2 to 7.8.
The solution after heated at 37° C. for 60 minutes was added with 1.0 ml of an aqeuous solution of thiobarbituric acid/trichloroacetic acid/hydrochloric acid, and the mixture was heated in a boiling water bath for 15 minutes. After ice-cooling, the solution was extracted with 2.0 ml of 1-butanol to prepare a sample for determining the lipid peroxide in the same way as described in Test Example 1. […] [formula] A4 : Absorbance when a test compound was added. A5 : Absorbance when a test compound was not added.
A6 : Abosrbance when a test compound was not added and heating at 37° C. for […] was not carried out.

UV absorptive activities = type: physicochemical; conditions: 100 μM in ethanol (water or DMSO added if not soluble); for Maximum molar extinction coefficient: UVA and UVB regions
Protocol: Test for UV Absorptive Activities
A solution of each of the test compounds shown in Table 10 below in ethanol was prepared for the final concentration to be 100 μM. If test compounds were not soluble in ethanol alone, water or DMSO was added.
The absorption spectrum of each sample was determined using a spectrophotometer "Model 320" (manufactured by Hitachi).

[5] = tested on: lipid peroxidation in homogenate of murine swiss 3T3 cells; assay: Inhibitory effects on UV-induced lipid peroxidation (homogenate of murine swiss 3T3 cells); type: biochemical; conditions: 1 mM test compound; UVB 0.4 mW/cm^2, 90 min; pH 7.2 to 7.8; TBA, 535 nm
Protocol: Test for Inhibitory Effects on UV-induced Lipid Peroxidation
The test was carried out on the basis of the methods described in Biochim. Biophys. […] Namely, 12 μl of an aqueous sodium hydroxide solution of each of the test compounds shown in Table 5 below was added to 1.2 ml of a homogenate of murine swiss 3T3 cells (i.e. a kind of murine skin cells) prepared by a conventional method in 20 mM phosphate buffer (protein content: 1.5 to 1.8 mg/ml). The final concentration of the test compounds was adjusted to be 1 mM and the pH of the solution was adjusted to 7.2 to 7.8. If test compounds were not soluble in an aqueous sodium hydroxide solution, they were dissolved in N,N-dimethyl sulfoxide (DMSO).
This solution (1.1 ml) was irradiated with UV rays (0.4 mW/cm^2, 90 min.) using a UVB lamp "EB-280C/J" (manufactured by Spectronics). To an aliquot (1.0 ml) of this solution were successively added 0.2 ml of an aqueous solution of sodium dodecyl sulfate and 1.0 ml of an aqueous solution of thiobarbituric acid/trichloroacetic acid/hydrochloric acid, and the mixed solution was heated in a boiling water bath for 15 minutes. After ice-cooling, the solution was extracted with 1.0 ml of 1-butanol to prepare a sample for determining peroxide lipid as absorbance at a wavelength of 535 nm using a spectrophotometer "Model 320" (manufactured by Hitachi).
as §2
A3 : Absorbance when a test compound was not added and UV rays were not irradiated.

Row | SMILES | % Inhibition of metal ion-induced lipid peroxidation [1] | % Inhibition of hydroxy radicals (hydroxyl radical [2]) | % Inhibition of hydroxyl radical (hydroxyl radical [3]) | % Inhibition of lipid peroxidation [4] | Wavelength (nm) of maximum absorption (UV absorptive activities) | Maximum molar extinction coefficient (UV absorptive activities) | % Inhibition of UV-induced lipid peroxidation [5]
1 | O=C(O)C(CCO)N=Cc1c(O)ccc2ccccc12 (stereo not drawn) [Synthesis Example 29] | 78% | 60% | – | – | – | – | –
2 | N=C(N)NCCCC(N=Cc1c(O)ccc2ccccc12)C(=O)O (stereo not drawn) [Synthesis Example 53] | 96% | 68% | – | – | – | – | –
3 | O=C(O)C(Cc1ccc(O)cc1)N=Cc1c(O)ccc2ccccc12 (stereo not drawn) [Synthesis Example 31] | 90% | – | 16% | – | – | – | –
4 | Cc1ncc(CO)c(CNC(Cc2c[nH]cn2)C(=O)O)c1O (stereo not drawn) [Synthesis Example 22] | – | 51% | – | 91% | 290 nm | 5,300 | –
5 | O=C(O)CCC(N=Cc1c(O)ccc2ccccc12)C(=O)O (stereo not drawn) [Synthesis Example 47] | 90% | 32% | – | – | – | – | –
6 | Cc1ncc(CO)c(CNCC(=O)O)c1O [Synthesis Example 16] | – | 56% | – | 89% | – | – | –
7 | O=C(O)[C@H](Cc1c[nH]cn1)N=Cc1c(O)ccc2ccccc12 [Synthesis Example 27, N-(2-hydroxy-1-naphthal)-L-histidine] | 87% | 71% | – | 98% | 309 nm | 7,000 | –
8 | O=C(O)C(Cc1c[nH]cn1)N=Cc1ccccc1O (stereo not drawn) [Synthesis Example 60] | 34% | 33% | – | – | – | – | –
9 | O=C(O)C(Cc1ccc(O)cc1)NCc1ccccc1O (stereo not drawn) [Synthesis Example 4] | 26% | 27% | 33% | – | – | – | 60%
10 | O=C(O)[C@H](Cc1c[nH]cn1)NCc1ccccc1O [Synthesis Example 1, N-(2-hydroxybenzyl)-L-histidine] | 26% | 27% | 29% | 53% | – | – | 40%
11 | Cc1ncc(CO)c(C=NC(Cc2ccc(O)cc2)C(=O)O)c1O (stereo not drawn) [Synthesis Example 70] | 27% | 28% | 60% | – | – | – | –
12 | Cc1ncc(CO)c(C=N[C@@H](Cc2c[nH]cn2)C(=O)O)c1O [Synthesis Example 68, N-pyridoxilidene-L-histidine-sodium salt] | 15% | 10% | 15% | – | 291 nm | 4,300 | –
13 | O=C(O)CC(O)(CC(=O)O)C(=O)O [Citric acid, reference compound] | -15% | – | -33% | -13% | – | – | 19%
14 | O=C(O)C(CCO)NCc1ccccc1O (stereo not drawn) [Synthesis Example 3] | 21% | 45% | 15% | – | – | – | 65%
15 | Cc1ncc(CO)c(CNC(CO)C(=O)O)c1O (stereo not drawn) [Synthesis Example 18] | 26% | 43% | 42% | 44% | 290 nm | 3,500 | –
16 | O=C(O)C(CO)NCc1ccccc1O (stereo not drawn) [Synthesis Example 2] | 41% | 44% | 29% | 26% | – | – | 59%
17 | CC(C)C(N=Cc1c(O)ccc2ccccc12)C(=O)O (stereo not drawn) [Synthesis Example 30] | 43% | 25% | – | – | – | – | –
18 | Cc1ncc(CO)c(C=NC(CO)C(=O)O)c1O (stereo not drawn) [Synthesis Example 69] | 23% | 19% | – | 15% | 336 nm | 3,000 | –
19 | COC(=O)CCC(N=Cc1c(O)ccc2ccccc12)C(=O)O (stereo not drawn) [Synthesis Example 48] | 85% | 54% | – | – | – | – | –
